#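 Test compounds were applied to cells in 96-well plates for 48 hours at 5 doses. GI50 marks 50% less growth.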 Calls of active or inactive are those of the source. Rule as the data show it: active = GI50 up to about 1.1 µM and inactive = higher.
# Columns and labels:
# Experiment in all cases: NCI-60 cell line screen, 48 h
# TK-10 = system: TK-10
# MDA-N = system: MDA-N
# SF-295 = system: SF-295
# SN12C = system: SN12C
# M14 = system: M14
# T47D = system: T47D
# NCI-H460 = system: NCI-H460
# UO-31 = system: UO-31
# OVCAR-8 = system: OVCAR-8
# OVCAR-4 = system: OVCAR-4
# SNB-75 = system: SNB-75
# NCI-H23 = system: NCI-H23
# A549 = system: A549
# HT-29 = system: HT-29
# HCT-116 = system: HCT-116
# OVCAR-5 = system: OVCAR-5
# CCRF-CEM = system: CCRF-CEM
# SK-OV-3 = system: SK-OV-3
# UACC-257 = system: UACC-257
# SR = system: SR
# RPMI-8226 = system: RPMI-8226
# HOP-92 = system: HOP-92
# NCI-H226 = system: NCI-H226
# SK-MEL-2 = system: SK-MEL-2
# MCF7 = system: MCF7
# NCI/ADR-RES = system: NCI/ADR-RES
# SNB-19 = system: SNB-19
# K562 = system: K562
# 786-0 = system: 786-0
# EKVX = system: EKVX
# MDA-MB-435 = system: MDA-MB-435
# HCC 2998 = system: HCC 2998
# SW-620 = system: SW-620
# NCI-H522 = system: NCI-H522
# A498 = system: A498
# ACHN = system: ACHN
# DU-145 = system: DU-145
# COLO 205 = system: COLO 205
# BT-549 = system: BT-549
# LOX IMVI = system: LOX IMVI
# SK-MEL-5 = system: SK-MEL-5
# SF-539 = system: SF-539
# HL-60 = system: HL-60
# RXF 393 = system: RXF 393
# HOP-62 = system: HOP-62
# MDA-MB-231 = system: MDA-MB-231
# IGROV-1 = system: IGROV-1
# CAKI-1 = system: CAKI-1
# PC-3 = system: PC-3
# MOLT-4 = system: MOLT-4
# Malme-3M = system: Malme-3M
# UACC-62 = system: UACC-62
# SK-MEL-28 = system: SK-MEL-28
# SF-268 = system: SF-268
# U-251 = system: U-251
# KM12 = system: KM12
# Hs-578T = system: Hs-578T
# HCT-15 = system: HCT-15
# OVCAR-3 = system: OVCAR-3
compound,measurement,setting,value
COc1ccc2c(c1)C(=O)C(=O)c1cc(O)c(OC)c(OC)c1-2,GI50,TK-10,1.01 µM (active)
same,GI50,MDA-N,0.697 µM (active)
same,GI50,SF-295,0.805 µM (active)
same,GI50,SN12C,0.879 µM (active)
same,GI50,M14,0.933 µM (active)
same,GI50,T47D,1.13 µM (inactive)
same,GI50,NCI-H460,3.02 µM (inactive)
same,GI50,UO-31,0.925 µM (active)
same,GI50,OVCAR-8,0.875 µM (active)
same,GI50,OVCAR-4,0.719 µM (active)
same,GI50,SNB-75,1.18 µM (inactive)
same,GI50,NCI-H23,0.889 µM (active)
same,GI50,A549,2.73 µM (inactive)
same,GI50,HT-29,1.32 µM (inactive)
same,GI50,HCT-116,0.813 µM (active)
same,GI50,OVCAR-5,1.12 µM (inactive)
same,GI50,CCRF-CEM,0.791 µM (active)
same,GI50,SK-OV-3,1.5 µM (inactive)
same,GI50,UACC-257,0.91 µM (active)
same,GI50,SR,0.818 µM (active)
same,GI50,RPMI-8226,1.09 µM (active)
same,GI50,HOP-92,0.875 µM (active)
same,GI50,NCI-H226,5.64 µM (inactive)
same,GI50,SK-MEL-2,0.861 µM (active)
same,GI50,MCF7,0.902 µM (active)
same,GI50,NCI/ADR-RES,1.03 µM (active)
same,GI50,SNB-19,1.01 µM (active)
same,GI50,K562,0.838 µM (active)
same,GI50,786-0,0.836 µM (active)
same,GI50,EKVX,0.979 µM (active)
same,GI50,MDA-MB-435,0.115 µM (active)
same,GI50,HCC 2998,4.55 µM (inactive)
same,GI50,SW-620,1.2 µM (inactive)
same,GI50,NCI-H522,0.927 µM (active)
same,GI50,A498,4.48 µM (inactive)
same,GI50,ACHN,0.893 µM (active)
same,GI50,DU-145,0.918 µM (active)
same,GI50,COLO 205,1.31 µM (inactive)
same,GI50,BT-549,0.718 µM (active)
same,GI50,LOX IMVI,0.883 µM (active)
same,GI50,SK-MEL-5,0.826 µM (active)
same,GI50,SF-539,1.85 µM (inactive)
same,GI50,HL-60,0.104 µM (active)
same,GI50,RXF 393,0.9 µM (active)
same,GI50,HOP-62,0.845 µM (active)
same,GI50,MDA-MB-231,0.957 µM (active)
same,GI50,IGROV-1,0.791 µM (active)
same,GI50,CAKI-1,0.918 µM (active)
same,GI50,PC-3,1.07 µM (active)
same,GI50,MOLT-4,0.114 µM (active)
same,GI50,Malme-3M,0.832 µM (active)
same,GI50,UACC-62,0.849 µM (active)
same,GI50,SK-MEL-28,0.845 µM (active)
same,GI50,SF-268,1 µM (active)
same,GI50,U-251,0.863 µM (active)
same,GI50,KM12,0.979 µM (active)
same,GI50,Hs-578T,1.07 µM (active)
same,GI50,HCT-15,0.91 µM
same,GI50,OVCAR-3,0.946 µM (active)

# From ChEMBL document CHEMBL1201862, “PubChem BioAssay data set” (2004)
